Where a SMILES comes first, the peptide text is derived from it. [ ]: non-standard residue; d: D form.
Experiments:
[1] = system: clinical strains of C. parapsilosis; assay: MIC, clinical yeast strains, C. parapsilosis; assay type: cell-based, Candida parapsilosis; design: unit: μg/ml
Description: (§1) Minimum inhibition concentrations (MICs) were determined against Escherichia coli (ATCC 25922), Staphylococcus aureus (ATCC 25923), Klebsiella pneumoniae (ATCC 10031) and Pseudomonas aeruginosa (ATCC 27853). Also clinical strains of E. coli, K. pneumoniae, E. cloacae, P. aeruginosa, Serratia marcescens, Proteus mirabilis, S. pneumoniae, Acinetobacter baumannii, A. johnsonii and S. aureus were used for MICs assays. Additionally, clinical strains of yeast including Candida albicans, C. glabrata, C. parapsilosis and C. quillermondiae were used. The susceptibility of these microorganisms to Chain peptides were determined using micro broth dilution assay. Colonies of the respective microorganism from Muller Hinton (MH) agar plates incubated overnight were suspended in MH broth media and final concentration of microorganism was adjusted to 5.0×10^5 cfu/ml. An aliquot of 10 μl of each Chain peptide, or gentamicin, tetracycline as reference antibiotics were added in differing concentrations along with 90 μl of bacterial suspension to 96 well polypropylene plates and incubated at 37° C. for 20 to 24 hours. Concentrations of Chain peptides and reference antibiotics ranged from 0.125 to 128 μg/ml and the MICs were recorded as the lowest concentration with no visual growth of bacteria. Similarly, antifungal MICs were tested in Potato dextrose broth.
(§2) Clinical strains of yeasts including Candida albicans, C. glabrata, C. parapsilosis and C. quillermondiae were also tested with the 12 Chain peptides. The minimum inhibitory concentration (MICs) varied between these peptides and are presented in Tables 4a, 4b, 4c and 5a, 5b, 5c. Peptides Chain 105, 201 and 308 are broad spectrum antimicrobials with MICs between 0.5-32 μg/ml against all the bacteria and yeasts tested, except Serratia marcescens and Proteus mirabilis, against which the MICs were between 64-128 μg/ml. Peptide Chain 306 has narrow spectrum activity against E.coli at 1 μg/ml and for the rest of the bacterial strains at >32 μg/ml (FIG. 10).

[2] = system: clinical strains of Staphylococcus aureus; assay: MIC, clinical strains of S. aureus; assay type: cell-based; design: unit: μg/ml; settings: microdilution, Muller Hinton broth-cation adjusted, 0.02% BSA, 0.2% acetic acid
Description: as §1, §2

[3] = system: clinical strains of Streptococcus pneumoniae; assay: MIC, clinical strains of Streptococcus pneumoniae; assay type: cell-based; design: unit: µg/mL; settings: microdilution, Muller Hinton broth-cation adjusted, 0.02% BSA, 0.2% acetic acid
Description: as §1, §2

[4] = system: clinical strains of Klebsiella pneumoniae; assay: MIC, clinical strains of K. pneumoniae; assay type: cell-based; design: unit: μg/ml; settings: microdilution, Muller Hinton broth-cation adjusted, 0.02% BSA, 0.2% acetic acid
Description: as §1, §2

[5] = system: clinical strains of Serratia marcescens; assay: MIC, clinical strains of Serratia marcescens; assay type: cell-based; design: unit: µg/mL; settings: microdilution, Muller Hinton broth-cation adjusted, 0.02% BSA, 0.2% acetic acid
Description: as §1, §2

[6] = system: clinical strains of Proteus mirabilis; assay: MIC, clinical strains of Proteus mirabilis; assay type: cell-based; design: unit: µg/mL; settings: microdilution, Muller Hinton broth-cation adjusted, 0.02% BSA, 0.2% acetic acid
Description: as §1, §2

[7] = system: clinical strains of C. glabrata; assay: MIC, clinical yeast strains, C. glabrata; assay type: cell-based, Candida glabrata; design: unit: μg/ml
Description: as §1, §2

[8] = system: clinical strains of Pseudomonas aeruginosa; assay: MIC, clinical strains of P. aeruginosa; assay type: cell-based; design: unit: μg/ml; settings: microdilution, Muller Hinton broth-cation adjusted, 0.02% BSA, 0.2% acetic acid
Description: as §1, §2

[9] = system: clinical strains of Escherichia coli; assay: MIC, clinical strains of E. coli; assay type: cell-based; design: unit: μg/ml; settings: microdilution, Muller Hinton broth-cation adjusted, 0.02% BSA, 0.2% acetic acid
Description: as §1, §2

[10] = system: clinical strains of C. quillermondiae; assay: MIC, clinical yeast strains, C. quillermondiae; assay type: cell-based; settings: C. quillermondiae clinical yeast strain 1
Description: as §1, §2

[11] = system: clinical strains of Candida albicans; assay: MIC, clinical yeast strains, Candida albicans; assay type: cell-based; design: unit: μg/ml
Description: as §1, §2

[12] = system: clinical strains of Enterobacter cloacae; assay: MIC, clinical strains of Enterobacter cloacae; assay type: cell-based; design: unit: μg/ml; settings: microdilution, Muller Hinton broth-cation adjusted, 0.02% BSA, 0.2% acetic acid
Description: as §1, §2

Measured: Minimum inhibitory concentration

CC(C)C[C@@H](NC(=O)[C@@H](Cc1c[nH]c2ccccc12)NC(=O)[C@@H](Cc1ccccc1)NC(=O)[C@@H](Cc1c[nH]c2ccccc12)NC(=O)[C@@H](CCCCN)NC(=O)[C@@H](CCCNC(=N)N)NC(=O)[C@H](N)Cc1c[nH]c2ccccc12)C(=O)N[C@H](Cc1ccccc1)C(=O)N[C@H](CCCCN)C(=O)N[C@H](CCCCN)C(=O)N[C@H](CCCNC(=N)N)C(=O)O [Chain309D] (H-[dW][dR][dK][dW][dF][dW][dL][dF][dK][dK][dR]-OH)
16: [1]; C. parapsilosis clinical yeast strain 4 | [2]; Staphylococcus aureus clinical strain 2 | [8]; Pseudomonas aeruginosa clinical strain 1 | [8]; Pseudomonas aeruginosa clinical strain 3 | [9]; Escherichia coli clinical strain 3 | [9]; Escherichia coli clinical strain 5 | [11]; Candida albicans clinical yeast strain 3 | [11]; Candida albicans clinical yeast strain 4
32: [1]; C. parapsilosis clinical yeast strain 3 | [4]; Klebsiella pneumoniae clinical strain 2 | [4]; Klebsiella pneumoniae clinical strain 4 | [7]; C. glabrata clinical yeast strain 1 | [8]; Pseudomonas aeruginosa clinical strain 2 | [8]; Pseudomonas aeruginosa clinical strain 4 | [9]; Escherichia coli clinical strain 2 | [9]; Escherichia coli clinical strain 4 | [11]; Candida albicans clinical yeast strain 1 | [11]; Candida albicans clinical yeast strain 2 | [11]; Candida albicans clinical yeast strain 5 | [12]; Enterobacter cloacae clinical strain 5
0.5: [9]; Escherichia coli clinical strain 1
128: [4]; Klebsiella pneumoniae clinical strain 1 | [4]; Klebsiella pneumoniae clinical strain 5 | [7]; C. glabrata clinical yeast strain 4 | [12]; Enterobacter cloacae clinical strain 2
>128: [4]; Klebsiella pneumoniae clinical strain 3 | [5]; Serratia marcescens clinical strain 1 | [5]; Serratia marcescens clinical strain 2 | [5]; Serratia marcescens clinical strain 3 | [5]; Serratia marcescens clinical strain 4 | [5]; Serratia marcescens clinical strain 5 | [6]; Proteus mirabilis clinical strain 1 | [6]; Proteus mirabilis clinical strain 2 | [6]; Proteus mirabilis clinical strain 3 | [6]; Proteus mirabilis clinical strain 4 | [6]; Proteus mirabilis clinical strain 5 | [12]; Enterobacter cloacae clinical strain 1
4: [7]; C. glabrata clinical yeast strain 3
8: [2]; Staphylococcus aureus clinical strain 1 | [2]; Staphylococcus aureus clinical strain 3 | [2]; Staphylococcus aureus clinical strain 4 | [2]; Staphylococcus aureus clinical strain 5 | [8]; Pseudomonas aeruginosa clinical strain 5 | [10]
64: [1]; C. parapsilosis clinical yeast strain 1 | [1]; C. parapsilosis clinical yeast strain 2 | [3]; Streptococcus pneumoniae clinical strain 1 | [3]; Streptococcus pneumoniae clinical strain 2 | [3]; Streptococcus pneumoniae clinical strain 3 | [3]; Streptococcus pneumoniae clinical strain 4 | [3]; Streptococcus pneumoniae clinical strain 5 | [7]; C. glabrata clinical yeast strain 2 | [12]; Enterobacter cloacae clinical strain 3 | [12]; Enterobacter cloacae clinical strain 4

— patent US11096985B2, “Antimicrobial peptides, their variants and uses” (priority 2015, dated 2021)
